Here are results for 28 molecules from patent publication US9169252B2 (BRISTOL-MYERS SQUIBB COMPANY, priority 2014, dated 2015).

Molecules are shown by their SMILES. pEC50, pIC50: −log10 of the molar value. Like-named read-outs stand apart in the source and are kept apart here.

Assay [1] deals with TLR2 induced IL-6 in peripheral blood mononuclear cells (PBMCs). Kind of assay: PBMC TLR2 Induced IL-6 Assay. Type of assay: cell-based, human. The settings on record: IL-6 by ELISA; for pEC50: read-out: Cell EC50; for pIC50: read-out: Cell IC50. How it is done: PBMC TLR2 Induced IL-6 Assay
Peripheral blood mononuclear cells (PBMCs) were isolated from human blood containing the anti-coagulant EDTA (2.5 mM) by centrifugation over a FICOLL® gradient. PBMCs (250000 cells/well) were cultured in assay media (RPMI with 10% heat inactivated FCS) with compounds for 30 minutes at 37° C. in a 5% CO2 incubator. Following pretreatment with compounds, cells were stimulated for 5 hours with 10 µg/ml lipoteichoic acid (Invivogen, San Diego, Calif.), a TLR2 agonist. At the end of the culture, plates were centrifuged at 1800 rpm for 10 minutes to pellet the cells.

The target in the next assay is IRAK4 (Homo sapiens (Human), UniProt Q9NWZ3). Kind of assay: IRAK4 Inhibition Assay. Type of assay: biochemical. The settings on record: ATP 500 μM, read-out: IRAK4 IC50. As to the method:
The assays were performed in U-bottom 384-well plates. […] The reaction was initiated by the combination of IRAK4 with substrates and test compounds. The reaction mixture was incubated at room temperature for 60 min. and terminated by adding 45 μL of 35 mM EDTA to each sample. The reaction mixture was analyzed on the Caliper LABCHIP® 3000 (Caliper, Hopkinton, Mass.) by electrophoretic separation of the fluorescent substrate and phosphorylated product.

The mark [2] stands for this setting: human PBMCs, lipoteichoic acid stimulated.
Setting [3] is: Homo sapiens, PBMC, human PBMCs, lipoteichoic acid stimulated.
Where [4] appears, read: Homo sapiens, PBMC, PBMC TLR2 Induced IL-6 Assay, lipoteichoic acid stimulation.

Sequence of IRAK4 (Q9NWZ3 whole entry, species assumed): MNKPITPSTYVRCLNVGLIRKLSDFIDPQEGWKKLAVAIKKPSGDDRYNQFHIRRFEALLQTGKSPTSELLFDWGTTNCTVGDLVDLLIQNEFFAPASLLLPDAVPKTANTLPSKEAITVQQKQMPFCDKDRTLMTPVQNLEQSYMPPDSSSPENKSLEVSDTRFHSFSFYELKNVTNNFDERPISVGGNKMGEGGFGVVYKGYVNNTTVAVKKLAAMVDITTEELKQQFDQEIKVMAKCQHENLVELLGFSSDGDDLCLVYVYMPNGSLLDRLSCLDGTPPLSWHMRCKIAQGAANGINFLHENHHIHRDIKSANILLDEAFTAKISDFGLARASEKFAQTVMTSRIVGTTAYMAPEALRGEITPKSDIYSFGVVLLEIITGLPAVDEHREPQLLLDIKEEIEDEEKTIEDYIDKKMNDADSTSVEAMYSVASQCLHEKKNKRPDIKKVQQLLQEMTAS

As a reminder, the pEC50 is the negative decadic logarithm of the EC50, by convention in mol/L. One may read the pIC50 as −log10 of the IC50, conventionally taken in molar units. `CC(CCF)Nc1cc(-n2ccc3cc(C#N)cnc32)ncc1C(=O)NC[C@@H](F)C(C)(C)O` (single isomer, unassigned) [Example 427]: the pEC50 in assay [1] (setting [2]) was 7.05. For the same molecule, the pIC50 at IRAK4 (IRAK4 0.6 nM) was 8.55.
`CC(C)(O)[C@H](F)CNC(=O)c1cnc(-n2ccc3cc(C#N)cnc32)cc1NC1CCCC(CO)C1` (single isomer, unassigned) [Example 445]: the pEC50 in assay [1] (setting [3]) is 6.97. The pIC50 at IRAK4 (IRAK4 0.6 nM) was 8.28.
With `CC(C)CC(C)Nc1cc(-n2ccc3cc(C#N)cnc32)ncc1C(=O)NC[C@@H](F)C(C)(C)O` (single isomer, unassigned) [Example 454], in assay [1] (setting [3]), the pEC50 was 6.12 and the negative-log IC50 (pIC50) was 6.54. Besides, at IRAK4 (IRAK4 0.6 nM), the pIC50 is 8.23.
For `CC(O)CCNc1cc(-n2ccc3cc(C#N)cnc32)ncc1C(=O)NC[C@@H](F)C(C)(C)O` (single isomer, unassigned) [Example 461], in assay [1] (setting [2]), the pEC50 was 7.13 and the pIC50 was 6.91. Also, the pIC50 at IRAK4 (IRAK4 0.6 nM) was 8.60.
In the same order, the values of `CC(O)CCNc1cc(-n2ccc3cc(C#N)cnc32)ncc1C(=O)NC[C@@H](F)C(C)(C)O` (single isomer, unassigned) [Example 462] are 7.18, 6.40 and 8.54.
Regarding `CC(C)(O)[C@H](F)CNC(=O)c1cnc(-n2ccc3cc(C#N)cnc32)cc1NC1COCC1(F)F` (single isomer, unassigned) [Example 484], the pIC50 in assay [1] (setting [2]) is 6.55; on IRAK4 (IRAK4 0.6 nM) it was 8.46.
For `CC(C)(O)[C@H](F)CNC(=O)c1cnc(-n2ccc3cc(C#N)cnc32)cc1NC1COCC1(F)F` (single isomer, unassigned) [Example 485], the pEC50 in assay [1] (setting [3]) is 6.70. Besides, the pIC50 in assay [1] (setting [2]) is 5.97; on IRAK4 (IRAK4 0.6 nM), 8.06.
With `CC(C)CC(O)[C@H](C)Nc1cc(-n2ccc3cc(C#N)cnc32)ncc1C(=O)NC[C@@H](F)C(C)(C)O` (single isomer, unassigned) [Example 496], the negative-log IC50 (pIC50) in assay [1] (setting [3]) was 6.71; on IRAK4 (IRAK4 0.6 nM), 7.96.
In the same order, the values of `CC(C)C(O)CNc1cc(-n2ncc3cc(Cl)cnc32)ncc1C(=O)NC[C@@H](F)C(C)(C)O` (single isomer, unassigned) [Example 594] are 6.50 and 7.76.
With `CC(C)C(O)CNc1cc(-n2ncc3cc(Cl)cnc32)ncc1C(=O)NC[C@@H](F)C(C)(C)O` (single isomer, unassigned) [Example 596], the pIC50 in assay [1] (setting [2]) is 6.24; on IRAK4 (IRAK4 0.6 nM) it was 7.74.
As for `CC(C)(O)[C@H](F)CNC(=O)c1cnc(-n2ncc3cc(C#N)cnc32)cc1NC1CCC(F)(F)C1` (single isomer, unassigned) [Example 614], in assay [1] (setting [3]), the negative-log EC50 (pEC50) was 6.32. Moreover, the pIC50 was 6.31 in assay [1] (setting [2]) and 8.11 at IRAK4 (IRAK4 0.6 nM).
With `CC(C)(O)[C@H](F)CNC(=O)c1cnc(-n2ncc3cc(C#N)cnc32)cc1NC1CCC(F)(F)C1` (single isomer, unassigned) [Example 615], the pIC50 in assay [1] (setting [2]) is 6.72; at IRAK4 (IRAK4 0.6 nM), 8.64.
Turning to `CC(C)(O)[C@H](F)CNC(=O)c1cnc(-n2ncc3cc(F)cnc32)cc1NC1CCC(F)C1` (single isomer, unassigned) [Example 618], the pEC50 in assay [1] (setting [3]) was 6.90. The pIC50 at IRAK4 (IRAK4 0.6 nM) was 8.24.
`CC(C)(O)[C@H](F)CNC(=O)c1cnc(-n2ncc3cc(F)cnc32)cc1NC1CCC(F)C1` (single isomer, unassigned) [Example 619]: the negative logarithm of the EC50 (pEC50) in assay [1] (setting [2]) was 6.92. Moreover, the pIC50 at IRAK4 (IRAK4 0.6 nM) was 8.40.
Take `CC(C)(O)[C@H](F)CNC(=O)c1cnc(-n2ncc3cc(C#N)cnc32)cc1N[C@@H]1C[C@H]1CO` (single isomer, unassigned) [Example 642]: the figures for the negative logarithm of the IC50 (pIC50) (in assay [1] (setting [3]); at IRAK4 (IRAK4 0.6 nM)) were 6.71 and 8.32, respectively.
As to `CC(C)(O)[C@H](F)CNC(=O)c1cnc(-n2ncc3cc(C#N)cnc32)cc1N[C@@H]1C[C@H]1CO` (single isomer, unassigned) [Example 643], the negative-log IC50 (pIC50) in assay [1] (setting [2]) is 6.49; on IRAK4 (IRAK4 0.6 nM) it was 8.27.
For the molecule `CC(C)Nc1cc(-n2ccc3cc(C#N)ccc32)ncc1C(=O)NC[C@@H](F)C(C)(C)O` [Example 1, (R)-6-(5-Cyano-1H-indol-1-yl)-N-(2-fluoro-3-hydroxy-3-methylbutyl)-4-(isopropylamino)nicotinamide], in assay [1] (setting [4]), the pEC50 was 6.05 and the pIC50 was 6.06. At IRAK4 (IRAK4 Inhibition Assay), the pIC50 was 8.48.
The like results for `CC(C)(O)[C@H](F)CNC(=O)c1cnc(-n2ccc3cc(C#N)cnc32)cc1NC1CC1` [Example 2, (R)-6-(5-cyano-1H-pyrrolo[2,3-b]pyridin-1-yl)-4-(cyclopropylamino)-N-(2-fluoro-3-hydroxy-3-methylbutyl)nicotinamide] were, in that order, 8.10, 7.59 and 8.80.
In the same order, the values of `CC(C)(O)[C@H](F)CNC(=O)c1cnc(-n2ccc3cc(C#N)cnc32)cc1NC1CCOCC1` [Example 3, (R)-6-(5-cyano-1H-pyrrolo[2,3-b]pyridin-1-yl)-N-(2-fluoro-3-hydroxy-3-methylbutyl)-4-((tetrahydro-2H-pyran-4-yl)amino)nicotinamide] are 7.96, 7.32 and 9.00.
The like results for `CCNc1cc(-n2ccc3cc(C#N)cnc32)ncc1C(=O)NC[C@@H](F)C(C)(C)O` [Example 4, (R)-6-(5-cyano-1H-pyrrolo[2,3-b]pyridin-1-yl)-4-(ethylamino)-N-(2-fluoro-3-hydroxy-3-methylbutyl) nicotinamide] were, in that order, 7.82, 6.80 and 8.85.
Consider `CC(C)(O)[C@H](F)CNC(=O)c1cnc(-n2ccc3cc(C#N)cnc32)cc1NCC(F)(F)F` [Example 5, (R)-6-(5-cyano-1H-pyrrolo[2,3-b]pyridin-1-yl)-N-(2-fluoro-3-hydroxy-3-methylbutyl)-4-((2,2,2-trifluoroethyl)amino)nicotinamide], for which, in assay [1] (setting [4]), the pEC50 is 7.11 and the pIC50 is 7.02. The pIC50 at IRAK4 (IRAK4 Inhibition Assay) was 8.64.
In the same order, the values of `CC(C)(O)[C@H](F)CNC(=O)c1cnc(-n2ccc3cc(C#N)cnc32)cc1NC1CCC1` [Example 6, (R)-6-(5-cyano-1H-pyrrolo[2,3-b]pyridin-1-yl)-4-(cyclobutylamino)-N-(2-fluoro-3-hydroxy-3-methylbutyl) nicotinamide] are 6.61, 6.61 and 9.00.
For the molecule `C[C@@H](CO)Nc1cc(-n2ccc3cc(C#N)cnc32)ncc1C(=O)NC[C@@H](F)C(C)(C)O` [Example 9, 6-(5-cyano-1H-pyrrolo[2,3-b]pyridin-1-yl)-N—((R)-2-fluoro-3-hydroxy-3-methylbutyl)-4-(((S)-1-hydroxypropan-2-yl)amino) nicotinamide], in assay [1] (setting [4]), the pEC50 is 7.24 and the negative logarithm of the IC50 (pIC50) was 7.37. The pIC50 on IRAK4 (IRAK4 Inhibition Assay) was 8.82.
As to `CC(C)(O)[C@H](F)CNC(=O)c1cnc(-n2ccc3cc(C#N)cnc32)cc1NC1CCCC1` [Example 10, (R)-6-(5-cyano-1H-pyrrolo[2,3-b]pyridin-1-yl)-4-(cyclopentylamino)-N-(2-fluoro-3-hydroxy-3-methylbutyl)nicotinamide], the negative-log EC50 (pEC50) in assay [1] (setting [4]) was 7.20. For the same molecule, the negative logarithm of the IC50 (pIC50) in assay [1] (setting [4]) is 7.10; at IRAK4 (IRAK4 Inhibition Assay), 8.74.
Regarding `CC(C)Nc1cc(-n2ccc3cc(C#N)cnc32)ncc1C(=O)NCCC(C)(C)O` [Example 11, 6-(5-cyano-1H-pyrrolo[2,3-b]pyridin-1-yl)-N-(3-hydroxy-3-methylbutyl)-4-(isopropylamino)nicotinamide], the pEC50 in assay [1] (setting [4]) is 7.30. Also, the negative-log IC50 (pIC50) on IRAK4 (IRAK4 Inhibition Assay) was 8.77.
`CC(C)(O)CCNC(=O)c1cnc(-n2ccc3cc(C#N)cnc32)cc1NC1CCOCC1` [Example 12, 6-(5-cyano-1H-pyrrolo[2,3-b]pyridin-1-yl)-N-(3-hydroxy-3-methylbutyl)-4-((tetrahydro-2H-pyran-4-yl)amino)nicotinamide]: the negative logarithm of the EC50 (pEC50) in assay [1] (setting [4]) is 6.91. For the same molecule, at IRAK4 (IRAK4 Inhibition Assay), the negative logarithm of the IC50 (pIC50) is 8.77.
In the same order, the values of `CC(C)(O)[C@H](F)CNC(=O)c1cnc(-n2ccc3cc(C#N)cnc32)cc1NC12CC3CC(CC(C3)C1)C2` [Example 13, 4-((1s,3S)-adamantan-1-ylamino)-6-(5-cyano-1H-pyrrolo[2,3-b]pyridin-1-yl)-N—((R)-2-fluoro-3-hydroxy-3-methylbutyl)nicotinamide] are 6.46 and 7.92.
Consider `CC(C)Nc1cc(-n2ccc3cc(C#N)cnc32)ncc1C(=O)NC12CCC(O)(CC1)C2` [Example 14, 6-(5-cyano-1H-pyrrolo[2,3-b]pyridin-1-yl)-N-(4-hydroxybicyclo[2.2.1]heptan-1-yl)-4-(isopropylamino)nicotinamide], for which the pEC50 in assay [1] (setting [4]) was 6.54. Besides, at IRAK4 (IRAK4 Inhibition Assay), the pIC50 was 7.83.
